Test results taken from ChEMBL document CHEMBL3507680, “University of Dundee, Gates Library screen for HepG2 cell viability”.

Experiment: Human HepG2 cell viability assay in 384 well format
Assay type: toxicity, cell-based
Parameters: dose 125 nL, time 70.5 hour; concentration not given beside the values
Settings: HepG2 cells, read-out: Inhibition

SMILES	cytotoxicity at 70.5 h [%]
Cc1n[nH]c(C)c1CCC(=O)NCC1(O)CCN(c2ccccn2)C1 (stereo not given)	-1.98
Cc1ccc(CC(=O)N2CCN(CC(C)O)CC2)cn1 (stereo not given)	-5.27
O=C1NCC2=C1C(c1ccccc1)Nc1ccccc1N2 (stereo not given)	-2.81
CC(C)NC(=O)[C@@H]1Cc2[nH]cnc2CN1CCCc1ccccc1	6.69
CC(C)(C)NC(=O)CN1CCCN(Cc2ccc(C#N)cc2)CC1	-6.11
Nc1cnc(-c2ccc(F)cc2Cl)cn1	10.8
CNC(=O)[C@H]1C[C@@H]2CCN(Cc3ccc4c(c3)OCO4)C[C@@H]2O1	-7.08
Cn1cnc(S(=O)(=O)N2CCSC3(CCCCC3)C2)c1	4.34
CCCN(Cc1cccnc1)C(=O)C1CCS(=O)(=O)CC1	6.55
COc1ccc(C2CCCN2Cc2ccc(S(=O)(=O)N(C)C)o2)cc1 (stereo not given)	-1.88
COCc1nc(CNC2CCC3(CCNCC3)CC2)no1	-8.94
Cc1csc(CN2CCn3c(COc4cccnc4)cnc3C2C)n1 (stereo not given)	-9.58
Cc1n[nH]cc1CNCc1ccnc(OCC(F)(F)F)c1	-7.14
O=C(c1cocn1)N1C[C@@H]2CN(CC3CC3)CCO[C@@H]2C1	-1.55
CNc1nc(CNC(=O)Nc2ccc([S+](C)[O-])c(F)c2)cs1 (stereo not given)	-2.75
Fc1ccc(-c2nc(CNCCn3cccn3)cs2)cc1	0.385
COc1ccc(CNc2nnc(CC(C)(C)C)o2)cc1C#N	-3.97
O=C(NC1CCCc2c1[nH]c1ccc(F)cc21)c1n[nH]c2c1CCC2 (stereo not given)	26.4
Cc1ccc(N(CCC#N)C(=O)CN2CCCC2c2ccsc2)cc1 (stereo not given)	0.989
Cc1cnn(CCNCc2csc(C)n2)c1	-5.62
O=C(NCc1cccnc1N1CCCC(O)C1)c1ccsc1 (stereo not given)	-20.7
CC(C)n1nc(CN2CCCC2=O)c2c1CN(C(=O)c1ccno1)C2	-1.71
N#Cc1ccc(N2CCC3(CC2)CC(Oc2cccnc2)CO3)cc1 (stereo not given)	9.42

SMILES	cytotoxicity at 70.5 h [%]
Cc1cnn(CCC(=O)N2CCCC(c3ccn[nH]3)C2)c1 (stereo not given)	-1.8
CNS(=O)(=O)Cc1ccc(CNc2cncc(-n3cccn3)n2)cc1	-18.1
Cn1ccnc1CN1CCN(CC2CC2)[C@@H]2CS(=O)(=O)C[C@@H]21	-7.65
O=C(Nc1nncs1)N(Cc1cccc(F)c1)C1CC1	-5.56
CC(C)OCCC(=O)NS(=O)(=O)N1CCOc2ccccc21	-0.303
CN1CC[C@H](c2nnc(Cc3c[nH]c4ccccc34)o2)C1	-1.52
COC(=O)C(C)(C)NC(=O)C1CC(=O)N(CC(C)C)C1 (stereo not given)	-0.314
CCCC1C=CCN1C(=O)c1cc(COc2ccccc2)[nH]n1 (stereo not given)	-6.23
CCNC(=O)CNS(=O)(=O)c1cc(Br)ccc1F	-2.68
Cc1cnn(CC2CCCCN2C(=O)c2cccc3c2OCO3)c1 (stereo not given)	-8.6
CCN(CC)C(=O)NC(C)c1ccc(Oc2cccnc2)c(F)c1 (stereo not given)	16
COc1ccc(OCCN(C)C(=O)c2ccc(OC)cc2O)cc1	-9.58
COCCN(CC1CC1)c1nc(CCN)nc2ccccc12	-4.8
Cc1nc(NCC2CC2)nc2c1COCC21CCNC1 (stereo not given)	5.46
O=C(Cn1ccc2ccccc21)NCc1ccc(C(=O)O)cc1	-10.6
COc1ccc(F)cc1C(C)NC(=O)Cn1ccc(=O)n(C)c1=O (stereo not given)	-6.42
Cc1ncccc1Oc1nccnc1C1CCCN(C(C)C)C1 (stereo not given)	-6.39
COc1ccc(C(=O)N2CC[C@@H](N3CCC(O)CC3)[C@H](O)C2)cc1C	-3.31
COCCO[C@H]1CCN(C(=O)c2ccsc2)[C@H]1Cc1ccncc1	-9.1
CC1COc2ccccc2N1C(=O)c1ccnc(-n2cncn2)c1 (stereo not given)	9.86
NC(=O)Cn1cnc2nc3n(c2c1=O)CCC3	16.5
CC(C)N(C)Cc1cncc2c1CCN(CC(=O)N(C)C)C2	20
Cc1cc(C)nc(CCNC(=O)[C@H]2CNC[C@@H](C(=O)N3CCCC3)C2)n1	9.67

SMILES	cytotoxicity at 70.5 h [%]
Cc1ccc(C(C(=O)NC(C)(C)CN2CCCC2)N(C)C)cc1 (stereo not given)	45
Cc1cnc2n(c1=O)C(CC(=O)NCc1ccccc1Cl)CS2 (stereo not given)	35
CCc1nsc(N2CCN(C(=O)c3ccnc(N(C)C)c3)CC2)n1	-6.45
Cc1ccc(C2CSCCN2CCS(C)(=O)=O)cc1 (stereo not given)	-12.2
COc1cc(F)cc(NC(=O)NCc2cccc(N(C)C)n2)c1	16.5
CNc1ccc(C2CN(c3nc(C)cc(C)n3)CCO2)nc1 (stereo not given)	-2.83
Cn1cc(CN2CCCC3(CCN(c4nncs4)C3)C2)cn1 (stereo not given)	-0.185
O=C(O)c1cnc(OCC2CC2)c(Br)c1	-4.12
O=c1c2sccc2nc2n1CCN(Cc1cc(F)ccc1F)CC2	-7.47
Cc1ccnc(CC(C)N(C)Cc2ccc3c(c2)OCCO3)c1 (stereo not given)	-0.147
COc1ccc2c(CN3CCCN(Cc4ccncc4)CC3)n[nH]c2c1	-1.17
Cc1ncsc1C(=O)N(Cc1cccnc1)C1CC1	3.01
Cc1cc(Nc2cnccn2)nc(C2CCCN(CCO)C2)n1 (stereo not given)	-10.3
Cc1nc(C(F)(F)F)nc(N2CCC3(CC2)CC(C(=O)O)N(C)C3)c1C (stereo not given)	-5.6
CNC(=O)c1cc(C)nc(C2(C)CCCN2c2cc(C)ncn2)n1 (stereo not given)	-6.05
COc1ccc(C2CCCN2S(=O)(=O)N(C)CC(C)C)cc1 (stereo not given)	-1.91
COc1cncc(N2CCN(Cc3ccncc3Cl)CC2)n1	-9.33
Cc1nc(C)n(CC2CCCCN2CCC(=O)Nc2cc(C)on2)n1 (stereo not given)	-3.96
CCC(CC)c1nnc(NC(=O)N2CCCC(NC(C)=O)C2)s1 (stereo not given)	-5.89
O=C(CN1CCCCC1Cn1cncn1)NCc1ccccn1 (stereo not given)	-4.27
O=C(CCc1ccco1)N1CCCN(Cc2cscn2)CC1	11.4
O=C(c1cccc(CN2CCCC2)c1)N1CCCC(n2cncn2)C1 (stereo not given)	16.1
Cc1nc[nH]c1-c1nccn1-c1ccc(C(N)=O)c(N2CCCC2)c1	20.6

SMILES	cytotoxicity at 70.5 h [%]
CC(C)c1nc(CN2CCCC2Cn2cncn2)no1 (stereo not given)	5.22
COC(=O)c1ccc(NC(=O)CCc2ccco2)cc1	-8.07
O=C1CC2(CCN(c3nncs3)C2)CN1c1cncnc1 (stereo not given)	-0.39
COc1ccccc1CC(=O)N1CCC(NCc2cc[nH]c2)CC1	4.03
CCCN(Cc1nccn1C)C(=O)C(CC)Nc1cccc(OC)c1 (stereo not given)	-3.17
CC(C)CN1C(=O)CO[C@@H]2CN(C(=O)CC(F)(F)F)C[C@H]21	-1.53
Cc1noc(C(C)C)c1C(=O)NCc1ccc2c(c1)OCCO2	-5.36
CCc1noc(CN(C)C(=O)COc2cccc(Cl)c2C)n1	-6.73
Nc1ncccc1C(=O)NCc1ccc(Br)cc1	-2.61
CC(=O)N1N=C(c2ccccc2)OC1C(=O)N(C)Cc1ccccc1 (stereo not given)	-4.44
CCn1c(-c2ccccc2)nn(CC(=O)NCCc2c[nH]cn2)c1=O	28.4
O=C1NCCN1C1CCCN(Cc2coc(-c3ccc(F)cc3)n2)C1 (stereo not given)	31
CC(=O)N1CCN(C(=O)CN2CCN(c3cccc(C)c3)CC2)CC1	-6.8
CN(C)C(C(=O)N1CCN(C(=O)c2ccc[nH]2)CC1)c1ccc(F)cc1 (stereo not given)	9.68
CC(=O)N1Cc2nc(C(=O)NCCc3cccnc3)oc2C1	-6.92
CC(C)NCC1(O)CCCN(CCC2CCCCC2)C1=O (stereo not given)	-7.37
COCCn1cnnc1C(C)NC(=O)c1[nH]c2c(C)cc(C)cc2c1C (stereo not given)	14
CN(C)c1cccc(C(=O)N2C[C@H]3CC[C@@H]2CN(C(=O)C2CCC2)C3)c1	0.254
CCN(Cc1ccc2c(c1)OCO2)C(=O)NC(C)Cn1ccnc1 (stereo not given)	1.66
CCOc1ccnc(N2CCN(CCOC)CC2)n1	-5.63
Cn1cc(C[C@H]2[C@H](O)CCN2C(=O)c2ccsc2)cn1	-4.72
O=C(OCCF)c1cccc(C(=O)N2CCCC2)n1	26.7
N#CC(NC(=O)CS(=O)(=O)C1CCCC1)c1ccc(F)cc1F (stereo not given)	-10.4

SMILES	cytotoxicity at 70.5 h [%]
CS(=O)(=O)CCCSc1n[nH]c(-c2ccc3c(c2)CCC3)n1	-1.26
CCCC(=O)NCCCn1ncc2c(C)cccc21	-12.9
O=C(c1cc[nH]n1)N(Cc1ccccc1)CC1CCC1	-9.65
Nc1nc2nc(C3CCCN(C(=O)c4cnccn4)C3)ccc2s1 (stereo not given)	-3.81
Cn1ncc2c(N[C@H]3CC[C@@H](N)CC3)nc(C(C)(C)C)nc21	6.09
CN1CC=C(c2noc(CCC(=O)N3CCOCC3)n2)CC1	-5.23
CC(NCc1nnc2n1CCCC2)c1nc(C(C)(C)C)no1 (stereo not given)	-13.6
CS(=O)(=O)Cc1cc(F)ccc1NCc1nnsc1Cl	12.3
CCNC(=O)CN1CCOC(c2ccccc2C(F)(F)F)C1 (stereo not given)	0.292
CCCS(=O)(=O)N1CCC(c2ccc(OC)cc2)CC1	-5.25
CN(C)Cc1nnc(C2CCCN(c3ncccc3F)C2)n1C (stereo not given)	24.4
CCN1C(=O)C(C#N)=C(C)/C(=C/C2=Cc3ccccc3OC2)C1=O	7.28
COc1cccc(Cn2ncnc2CCSC)c1	-12.2
O=C(N1CCOCC1)N1CCc2ncc(CN3CCCCC3)n2CC1	-12.1
CN(Cc1cc2n(n1)CCNC2)Cc1noc(C2CCC2)n1	-3.21
Cc1cc(N(C)C)cc(C2CCN(S(=O)(=O)c3cccnc3)C2)n1 (stereo not given)	1.07
CCOc1ccc(CNC(=O)N(C)CC(C)(C)O)cc1C	-60
Cc1cccnc1CC(C)N(C)C(=O)c1cccs1 (stereo not given)	-10.3
CCN1CCC(NC(=O)CNC(C)Cn2cccn2)CC1 (stereo not given)	11.4
COc1c(C2CCCN2C(=O)c2ccco2)c(C)nn1C (stereo not given)	8.77
CC(C)CCN1C2(CCN(Cc3nccs3)C2)c2ccccc2S1(=O)=O (stereo not given)	-11.4
CC(C)(C)CC(NC(=O)N1CCS(=O)(=O)CC1)C(F)(F)F (stereo not given)	-4.28
Cc1nc(O)cc(CCNc2nccc(CCC(F)(F)F)n2)n1	-8.71
